Assay results reported in patent US20070197562A1, “Remedies for prostatic hypertrophy” (Yokohama TLO Company, Ltd., priority 2004, published 2007).

Assays:
PrSC cells = test: IL-6 secretion by PrSC cells (CLEIA); format: cell-based, human; settings: 24 hours
Experimental: PrSC cells prepared in the same manner as Example 1, or F-1 or FT-FB cells prepared as described above were placed in a 6-well dish at 10^5 cells per well, cultured at 5% CO2 and 37° C. for 1 day (24 hours), and stimulated by the addition of TGFβ (1 ng/mL), TNFα (1 ng/mL), EGF (2.5 or 10 ng/mL), or angiotensin II (1 μM or 10 μM) (n=3). CV was added as the AIIR blocker to some wells 4 hours before adding the reagents. The culture media were collected 24 hours after adding the reagents, and the concentrations of IL-6 were determined by the CLEIA method.

[1] = system: MAPK phosphorylation in PC-3 cells; test: MAPK phosphorylation in PC-3 cells cultured in PrSC conditioned media (Western blotting); format: cell-based, human; settings: 10% FCS-CM from PrSC with AIIR blocker 10 μM, no angiotensin II; lanes 5 and 6 vs lane 4; 10 minutes
Experimental: Stromal cells (PrSC) were cultured in a phenol red-free F12 medium containing 0.1% (W/V) BSA, to which angiotensin II (10 μM) was added alone or in combination with losartan (“Los”; 10 μM). The culture medium was collected 24 hours after the addition, and used as a conditioned medium (“0.1% BSA-CM”).
Stromal cells (PrSC) were cultured in a phenol red-free F12 medium containing 10% (V/V) FCS, to which CV (10 μM) or losartan (10 μM) was added. The culture medium was collected 24 hours after the addition, and used as a conditioned medium (“10% FCS-CM”) with no addition of angiotensin II. 10% FCS-CM with no additive was also prepared in the same manner.
3,000,000 PrSC cells were used for each of the above 10-1 and 10-2
PC3 cells (prostate cancer cells) were cultured for 24 hours in a phenol red-free F12 medium supplemented with 0.1% (W/V) BSA. Then the medium was replaced with one of the conditioned media prepared as described above, and the cells were collected 10 minutes later. Total cellular proteins were extracted as described below. Similar protocol was done in parallel for PC-3 cells without using any conditioned medium (“Control”).
The cells were washed twice with an ice-cold phosphate buffer (PBS), and lysed in 200 μL of an ice-cold cell lysis solution (lysis buffer; 20 mM of Tris (pH8.0), 137 mM of NaCl, 10% of glycerol, 0.1% of SDS, 0.5% of Nonidet P-40 (trade name), 100 mM of sodium fluoride, […] of sodium orthovanadate, 1 mM of EGTA, 2 mM of phenylmethylsulfonyl fluoride, […] of leupeptin, and […] of aprotinin). The mixture was centrifuged. Subsequently, the supernatant was collected.
The resulting protein sample was subjected to SDS-PAGE in the routine manner, and the MAPK phosphorylation was determined by Western blotting using an anti-phospho-MAP kinase antibody or an anti-MAP kinase antibody) (both were purchased from Cell Signaling Technology (Beverly, Mass.)) as the detecting antibody.
From the obtained results, the expression levels of pMAPK and MAPK bands were determined using NIH image software. On the basis of the results, the pMAPK/MAPK ratio in each lane was calculated, and then the ratio (“pMAPK ratio”) of the obtained value of each lane to that of the lane 1 (“Control”) was calculated by taking the value of Control as 1.

[2] = system: mixed tumor grafts of PC-3 cells and PrSC cells; test: In vivo effect on mixed tumor grafts of PC-3 cells and PrSC cells transplanted on mice
Experimental: (§1) The in vivo effect of the AIIR blocker was examined using the PC-3 human prostatic cancer cells with less expression of AT1 receptors (obtained from American Type Culture Collection, Rockville, Md., USA), and PrSC cells. PC-3 cells (5×10^6 cells) or a mixture of PC-3 and PrSC cells (2.5×10^6 cells each; a total of 5×10^6 cells) were injected subcutaneously in the back of male nude mice of 4 weeks old for forming tumors. Tumors having a diameter of about 5 mm were formed after one week. The above-described mice were divided into three groups: CV (5 mg/kg/day) administered group, CV (10 mg/kg/day) administered group, and non-administered group (Control) (n=4 for each group). The administered groups were orally administered with a specified dose of CV dissolved in drinking water every day from the first to the fifth week after the tumorigenic injection. The size of the tumor (heterograft) on each mouse was measured every week, and the volume was calculated using the formula: major axis×minor axis×minor axis/2. The volume was expressed as relative ratio to the volume in the first week as being 1. The results are shown in FIGS. 8 (PC-3 cells were transplanted) and 9 (a mixture of PC-3 and PrSC cells was transplanted).

PC-3 tumor grafts = test: In vivo effect on PC-3 tumor grafts transplanted on mice; settings: PC-3 cells transplanted; CV 5 or 10 mg/kg/day orally in drinking water, first to fifth week; male nude mice
Experimental: as §1

[3] = system: MAPK phosphorylation in PrSC cells; test: MAPK phosphorylation in PrSC cells (Western blotting); format: cell-based, human
Experimental: Stromal cells (PrSC) were cultured for 24 hours in a phenol red-free F12 medium containing 0.1% (W/V) BSA, to which angiotensin II (10 μM) or TNFα (1 ng/mL) was added each alone or in combination with either CV (10 μM) or losartan (“Los”; 10 μM) by replacing the medium. The cells were collected 10 minutes after the addition, and the total cellular proteins were extracted in the same manner as described in Example 10. Similarly, the cells cultured with no additive and the cells added with either CV or Los alone were processed in parallel. 3,000,000 PrSC cells were used for each sample.
These samples were subjected to Western blotting in the same manner as described in Example 10.

SMILES: CCOc1nc2cccc(C(=O)OC(C)OC(=O)OC3CCCCC3)c2n1Cc1ccc(-c2ccccc2-c2nnn[nH]2)cc1 (stereo not shown) [CV, 1-(cyclohexyloxycarbonyloxy)ethyl 2-ethoxy-1-[[2′-(1H-tetrazole-5-yl)biphenyl-4-yl]methyl]-1H-benzimidazole-7-carboxylate]
- IL-6 secretion (PrSC cells; EGF (10 ng/mL)+CV (10 μM), P<0.05 vs EGF): significantly suppressed
- IL-6 secretion (PrSC cells; TGFβ (1 ng/mL)+CV 10 μM, P<0.04 vs TGFβ): significantly suppressed
- IL-6 secretion (PrSC cells; TNFα (1 ng/mL)+CV 10 μM, P<0.01 vs TNFα): significantly suppressed
- MAPK phosphorylation in PC-3 cells [1]: suppressed
- proliferation (relative tumor volume) vs Control ([2]; mixture of PC-3 and PrSC cells transplanted, CV 5 or 10 mg/kg/day orally in drinking water, first to fifth week, male nude mice): dose-dependently suppressed
- relative tumor volume, difference from Control ([2]; mixture of PC-3 and PrSC cells, CV 10 mg/kg/day, fourth and fifth weeks (P<0.04 and P<0.03)): significant differences
- proliferation (relative tumor volume) vs Control (PC-3 tumor grafts): suppression of proliferation was observed for the CV administered groups as compared to “Control”, but the effect was not so remarkable
- MAPK phosphorylation in PrSC cells ([3]; AIIR blocker 10 μM added alone, lanes 8 and 9): not caused
- MAPK phosphorylation in PrSC cells ([3]; TNFα (1 ng/mL) in combination with AIIR blocker 10 μM, lanes 6 and 7, 10 minutes): suppressed
- MAPK phosphorylation in PrSC cells ([3]; angiotensin II (10 μM) in combination with AIIR blocker 10 μM, lanes 3 and 4, 10 minutes): suppressed
